Values quoted from earlier work as cited in patent US11318156B2, “Solid injectable veterinary implants comprising monocyclic lactone” (CEVA SANTE ANIMALE, priority 2017, dated 2022).
Read-outs that look alike come from different tables or passages of the source.

Experiments:
[1] = not given; remark: listed apart in the source
[2] = 14-week oral study

## ivermectin
other
  share of collie dogs highly sensitive to ivermectin: approximately 30%
[1]; four-fold increase in the dose (0.5 to 2.0 mg/kg bw oral)
  average increase in plasma levels: eight-fold
[1]; oral 0.5 and 2.0 mg/kg bw, 36-day study
  time to steady-state of ivermectin (B1a) in plasma: about three weeks
[2]; beagle dogs
  No Observable Effect Level (NOEL): 0.5 mg/kg bw
[2]; beagle dogs, 1.0 and 2.0 mg/kg bw
  observed effects: mydriasis and slight weight loss
[2]; four dogs in the 2.0 mg/kg bw group, killed prior to end of study
  observed effects: tremors, ataxia, anorexia and dehydration
